# Results: patent US20070274928A1, “Novel Cyclic Oxygenated Compounds Having Cooling, Fragrance, and Flavor Properties, and Uses Thereof” (priority 2003, published 2007)
# “Also recorded” adds a separate entry of the source.
# Test system: mouth
# Experiment: Taste evaluation of aqueous solutions by mouth rinse (cooling sensory effect)
# Format: in vivo, human
# Conditions: 5 ppm solution in purified water, 10 ml rinsed in mouth for 10 sec
# Description: A 5 ppm solution of 98% pure ketone (10) in purified water was prepared. 10 ml of the solution was tasted by rinsing it in the mouth for 10 sec.
# A series of solutions of a mixture of compounds (7) and (8) (approximately 60:40 ratio) were prepared in purified water for subsequent evaluation of cooling sensory effects and taste properties at different concentrations. The solutions were tasted by taking 10 ml of each sample in the mouth, rinsing the mouth for 30 seconds, and discarding the solution by spitting. The cooling sensory effects were recorded as extreme (5), strong (4), moderate (3), weak (2), or none (1), and the ranks were noted over a period of time of 4 hours. Only one sample was tasted per day. All samples were kept in a refrigerator until the taste evaluation and were brought to room temperature before tasting.
row,Compound,cooling sensory effect
1,CC(C)=CC1C(=O)C=C(C)C1(C)C (stereo not drawn) [(10)],no discernible cooling sensory effect

# Test system: not listed separately
# Experiment: Organoleptic evaluation of cooling sensory effect of purified compounds
# Format: in vivo, human
# Conditions: pure / purified compound
row,Compound,cooling sensory effect
1,CC(C)=CC1C(=O)C=C(C)C1(C)C (stereo not drawn) [(10)],completely devoid of a cooling sensory effect
2,CC1CCC(C(C)CO)C(=O)C1 (stereo not drawn) [(52)],potent cooling properties
3,CC1(C)CC2C(=O)CC(C)(O1)C2(C)C (stereo not drawn) [(147)],no significant cooling sensory effect
4,CC1=C[C@]2(C)OC(=O)CC2C1(C)C (stereo partly drawn) [compound (6)],lacks the cooling sensory effect
5,CC1=CC2(O)OC(C)(C)CC2C1(C)C (stereo not drawn) [compound (7)],powerful cooling effect; also recorded: very powerful cooling sensory effect
6,CC1=CC(=O)C(CC(C)(C)O)C1(C)C (stereo not drawn) [compound (8)],relatively weak cooling effect
7,CC1=CC2(C)OC(C)(C)CC2C1(C)C (stereo not drawn) [compound (11)],devoid of cooling sensory properties
8,CC1CC2(O)OC(C)(C)CC2C1(C)C (stereo not drawn) [compound (15)],moderate to strong cooling sensory effect
9,CC1CC(=O)C(CC(C)(C)O)C1(C)C (stereo not drawn) [compound (16)],weak cooling sensory effect

# Test system: nasal cavity
# Experiment: Olfactory evaluation of neat sample, cooling sensory effect on smelling
# Format: in vivo, human
# Conditions: not given
# Description: 10 ml of 20% NaOH in water were added to the 1 ml of ethanolic solution of 120 mg of the oil resulting from the Grignard reaction, and the whole was stirred at room temperature for 1 hour.
# An analytically pure sample of a lactone having formula (129) was obtained by subjecting 30 mg of the fraction 2A sample to column chromatography on silica gel using hexane:ethyl acetate 8:1 as an eluent.
row,Compound,cooling sensory effect upon smelling the sample
1,CC1CC2(C)OC(=O)CC2C1(C)C (stereo not drawn) [(129)],did not exhibit any significant ability to impart the cooling sensation

# Test system: tongue
# Experiment: Application of 5% solution to the tongue
# Format: in vivo, human
# Conditions: 0.1 ml of a 5% solution applied to the tongue
# Description: 3.66 grams of compound (5), 10 ml of water, 5 ml of ethanol, and 1.70 g of sodium bicarbonate were stirred together at room temperature until evolution of carbon dioxide ceased (approximately 30 min). The whole was evaporated under reduced pressure at 85° C. until a constant weight was reached. The resulting transparent solid (4.4 g) was sodium ketocampholenate monohydrate.
row,Compound,duration of tingling-tangy sensation
1,sodium ketocampholenate monohydrate,about 10 min
